According to patent US20260274832A1, “COMPOUNDS AND THEIR USE IN TREATING CANCER” (ASTRAZENECA AB, priority 2023, published 2026):

Assays:
[1] = molecular target: T1, AR (AR-full length) in LNCaP cells (Homo sapiens, UniProt P10275, T878A); experiment: LNCaP Androgen Receptor Imaging Assay (immunofluorescence of endogenous nuclear AR); format: cell-based; details: 24 h incubation; for DC50: concentration giving 50% of maximum degradation of AR per curve fit, single experiment or average of two or more; for Dmax: LNCaP, maximum degradation observed, normalized as % of positive control (prior art AR PROTAC at 3 μM)
T1 construct: the prostate cancer cell line LNCaP (expressing AR-full length); endogenous in cells; host or cells: LNCaP
In short: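 LNCaP cells (12,000/well) received a 12-point compound dose series (0.3% DMSO) for 24 h at 37° C., then were PFA-fixed and stained for AR (AR441) and nuclei (DRAQ5). Nuclear AR was quantified by imaging, normalized to a 3 μM AR PROTAC control; DC50 and Dmax came from Hill/bell curve fits.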

[2] = molecular target: T2, AR (L702H) in LNCaP cells (Homo sapiens, UniProt P10275, L702H/T878A); experiment: LNCaP Androgen Receptor L702H Imaging Assay (LNCaP cells engineered by CRISPR/Cas9); format: cell-based; details: LNCaP cells with AR L702H mutation, 24 h incubation; for DC50: concentration giving 50% of maximum degradation of AR (L702H) per curve fit; for Dmax: LNCaP, maximum degradation observed, normalized as % of positive control
T2 construct: engineered to introduce the mutation L702H into the AR gene using CRISPR/Cas9; endogenous in cells; host or cells: LNCaP cells edited by CRISPR/Cas9 at the AR gene
In short: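 CRISPR-engineered LNCaP cells carrying AR L702H were treated 24 h at 37 °C with a 12-point compound dose response (0.3% DMSO), then fixed and immunostained for AR with DRAQ5 nuclear counterstain. Nuclear AR was quantified by imaging, normalized to positive control; DC50 and Dmax came from Hill or bell-shaped fits.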

T2 sequence (P10275 whole entry L702H/T878A): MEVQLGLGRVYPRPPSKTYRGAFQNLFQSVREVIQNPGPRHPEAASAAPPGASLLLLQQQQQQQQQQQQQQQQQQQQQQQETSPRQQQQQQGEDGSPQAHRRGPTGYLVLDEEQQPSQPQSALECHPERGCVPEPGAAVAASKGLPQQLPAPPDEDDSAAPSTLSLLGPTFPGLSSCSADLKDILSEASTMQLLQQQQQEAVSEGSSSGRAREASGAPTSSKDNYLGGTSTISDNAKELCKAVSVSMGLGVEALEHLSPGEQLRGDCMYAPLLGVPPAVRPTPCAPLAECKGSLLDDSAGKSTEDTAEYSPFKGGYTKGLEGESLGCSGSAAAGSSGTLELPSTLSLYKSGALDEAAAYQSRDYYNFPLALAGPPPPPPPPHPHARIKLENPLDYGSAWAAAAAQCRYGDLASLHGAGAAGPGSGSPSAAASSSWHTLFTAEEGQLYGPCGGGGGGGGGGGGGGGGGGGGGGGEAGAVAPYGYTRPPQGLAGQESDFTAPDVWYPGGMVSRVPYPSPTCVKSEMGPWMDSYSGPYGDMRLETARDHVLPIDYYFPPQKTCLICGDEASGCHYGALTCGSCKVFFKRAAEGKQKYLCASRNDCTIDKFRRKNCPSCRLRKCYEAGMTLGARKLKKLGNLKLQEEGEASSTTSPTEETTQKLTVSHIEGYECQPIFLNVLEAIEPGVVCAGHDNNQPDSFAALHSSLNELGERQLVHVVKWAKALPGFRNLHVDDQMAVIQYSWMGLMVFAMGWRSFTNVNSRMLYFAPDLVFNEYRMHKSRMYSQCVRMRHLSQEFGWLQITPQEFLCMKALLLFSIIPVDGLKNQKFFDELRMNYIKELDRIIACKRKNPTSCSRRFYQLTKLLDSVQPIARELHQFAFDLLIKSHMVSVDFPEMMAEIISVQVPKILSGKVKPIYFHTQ
T2 sequence (Q96SW2 whole entry partner): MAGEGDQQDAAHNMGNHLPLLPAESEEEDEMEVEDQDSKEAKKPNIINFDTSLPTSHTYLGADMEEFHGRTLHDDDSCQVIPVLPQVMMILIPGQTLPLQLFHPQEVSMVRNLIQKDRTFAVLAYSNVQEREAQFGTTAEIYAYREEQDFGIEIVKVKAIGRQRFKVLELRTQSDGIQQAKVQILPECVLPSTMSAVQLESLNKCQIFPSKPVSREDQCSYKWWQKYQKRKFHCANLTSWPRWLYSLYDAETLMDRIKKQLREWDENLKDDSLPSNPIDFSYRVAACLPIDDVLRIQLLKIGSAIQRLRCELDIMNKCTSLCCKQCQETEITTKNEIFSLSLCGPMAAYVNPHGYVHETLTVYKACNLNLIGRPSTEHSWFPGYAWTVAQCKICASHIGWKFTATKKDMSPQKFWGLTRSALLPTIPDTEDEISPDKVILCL
T1 sequence (P10275 whole entry T878A): as the sequence (P10275 whole entry L702H/T878A) above, with H702L counted along it
T1 sequence (Q96SW2 whole entry partner): as the sequence (Q96SW2 whole entry partner) above

Row | Structure (SMILES) | DC50 [1] | Dmax [1] | DC50 [2] | Dmax [2]
1 | COc1cc(N2CCN(CC3CCN(c4ccc(C5CCN(c6ccc(C)c7c(C#N)c[nH]c67)CC5)cc4)CC3)CC2)cc2c1C(=O)N(C1CCC(=O)NC1=O)C2 (centres unmarked) [Example 15, 7-(4-{4-[4-({4-[2-(2,6-Dioxopiperidin-3-yl)-7-methoxy-1-oxo-2,3-dihydro-1H-isoindol-5-yl]piperazin-1-yl}methyl)piperidin-1-yl]phenyl}piperidin-1-yl)-4-methyl-1H-indole-3-carbonitrile] | 0.009 µM | 97% | 0.024 µM | 85%
2 | COc1cc(N2CCN(CC3CCN(c4ccc(C5CCN(c6ccc(F)c7c(C#N)c[nH]c67)CC5)cc4)CC3)CC2)cc2c1C(=O)N(C1CCC(=O)NC1=O)C2 (centres unmarked) [Example 20, 7-(4-{4-[4-({4-[2-(2,6-Dioxopiperidin-3-yl)-7-methoxy-1-oxo-2,3-dihydro-1H-isoindol-5-yl]piperazin-1-yl}methyl)piperidin-1-yl]phenyl}piperidin-1-yl)-4-fluoro-1H-indole-3-carbonitrile] | 0.009 µM | 94% | 0.008 µM | 101%
3 | COc1cc(N2CCN(CCCCOc3ccc(C4CCN(c5ccc(C)c6c(C#N)c[nH]c56)CC4)cc3)CC2)cc2c1C(=O)N(C1CCC(=O)NC1=O)C2 (centres unmarked) [Example 27, 7-{4-[4-(4-{4-[2-(2,6-Dioxopiperidin-3-yl)-7-methoxy-1-oxo-2,3-dihydro-1H-isoindol-5-yl]piperazin-1-yl}butoxy)phenyl]piperidin-1-yl}-4-methyl-1H-indole-3-carbonitrile] | 0.014 µM | 99% | 0.027 µM | 75%
4 | Cc1ccc(N2CCC(c3ccc(OCCCCN4CCN(c5ccc6c(c5)CN(C5CCC(=O)NC5=O)C6=O)CC4)cc3)CC2)c2[nH]cc(C#N)c12 (centres unmarked) [Example 28, 7-{4-[4-(4-{4-[2-(2,6-dioxopiperidin-3-yl)-1-oxo-2,3-dihydro-1H-isoindol-5-yl]piperazin-1-yl}butoxy)phenyl]piperidin-1-yl}-4-methyl-1H-indole-3-carbonitrile] | 0.005 µM | 96% | 0.023 µM | 83%
5 | Cc1ccc(N2CCC(c3ccc(OCCCCN4CCC(n5ccc6c(N7CCC(=O)NC7=O)cccc65)CC4)cc3)CC2)c2[nH]cc(C#N)c12 [Example 29, 7-{4-[4-(4-{4-[4-(2,4-Dioxo-1,3-diazinan-1-yl)-1H-indol-1-yl]piperidin-1-yl}butoxy)phenyl]piperidin-1-yl}-4-methyl-1H-indole-3-carbonitrile] | 0.079 µM | 94% | 0.06 µM | 74%
6 | COc1nc(N2CCN(CCCCOc3ccc(C4CCN(c5ccc(C)c6c(C#N)c[nH]c56)CC4)cc3)CC2)cc2c1C(=O)N(C1CCC(=O)NC1=O)C2 (centres unmarked) [Example 31, 7-{4-[4-(4-{4-[2-(2,6-Dioxopiperidin-3-yl)-4-methoxy-3-oxo-2,3-dihydro-1H-pyrrolo[3,4-c]pyridin-6-yl]piperazin-1-yl}butoxy)phenyl]piperidin-1-yl}-4-methyl-1H-indole-3-carbonitrile] | 0.008 µM | 94% | 0.022 µM | 88%
7 | COc1nc(N2CCN(CCCCOc3ccc(C4CCN(c5ccc(Cl)c6c(C#N)c[nH]c56)CC4)cc3)CC2)cc2c1C(=O)N(C1CCC(=O)NC1=O)C2 (centres unmarked) [Example 32, 4-Chloro-7-{4-[4-(4-{4-[2-(2,6-dioxopiperidin-3-yl)-4-methoxy-3-oxo-2,3-dihydro-1H-pyrrolo[3,4-c]pyridin-6-yl]piperazin-1-yl}butoxy)phenyl]piperidin-1-yl}-1H-indole-3-carbonitrile] | 0.005 µM | 99% | 0.01 µM | 100%

Now from value to compound:

Row | DC50 [1] | Dmax [1] | DC50 [2] | Dmax [2] | Structure (SMILES)
8 | 0.008 µM | 92% | 0.007 µM | 103% | N#Cc1c[nH]c2c(N3CCC[C@H](c4ccc(N5CCC(CN6CCN(c7ccc8c(c7)CN(C7CCC(=O)NC7=O)C8=O)CC6)CC5)cc4)C3)ccc(Cl)c12 (stereo partly drawn) [Example 21, 4-Chloro-7-[(3R)-3-{4-[4-({4-[2-(2,6-dioxopiperidin-3-yl)-1-oxo-2,3-dihydro-1H-isoindol-5-yl]piperazin-1-yl}methyl)piperidin-1-yl]phenyl}piperidin-1-yl]-1H-indole-3-carbonitrile]
9 | 0.014 µM | 80% | 0.023 µM | 81% | N#Cc1c[nH]c2c(N3CCC(c4ccc(N5CCN(CC6CCN(c7ccc8c(c7)CN(C7CCC(=O)NC7=O)C8=O)CC6)CC5)cc4)CC3)ccc(F)c12 (centres unmarked) [Example 22]
10 | 0.012 µM | 100% | 0.057 µM | 94% | N#Cc1c[nH]c2c(N3CCC[C@@H](c4ccc(N5CCC(CN6CCC(n7ccc8c(N9CCC(=O)NC9=O)cccc87)CC6)CC5)cc4)C3)ccc(F)c12 [Example 23, 7-[(3S)-3-{4-[4-({4-[4-(2,4-Dioxo-1,3-diazinan-1-yl)-1H-indol-1-yl]piperidin-1-yl}methyl)piperidin-1-yl]phenyl}piperidin-1-yl]-4-fluoro-1H-indole-3-carbonitrile]
11 | 0.006 µM | 100% | 0.018 µM | 83% | N#Cc1c[nH]c2c(N3CCC[C@@H](c4ccc(N5CCC(CN6CCN(c7ccc8c(c7)CN(C7CCC(=O)NC7=O)C8=O)CC6)CC5)cc4)C3)ccc(F)c12 (stereo partly drawn) [Example 24, 7-[(3S)-3-{4-[4-({4-[2-(2,6-dioxopiperidin-3-yl)-1-oxo-2,3-dihydro-1H-isoindol-5-yl]piperazin-1-yl}methyl)piperidin-1-yl]phenyl}piperidin-1-yl]-4-fluoro-1H-indole-3-carbonitrile]
12 | 0.006 µM | 92% | 0.004 µM | 104% | N#Cc1n[nH]c2c(N3CCC[C@H](c4ccc(N5CCC(CN6CCC(n7ccc8c(N9CCC(=O)NC9=O)cccc87)CC6)CC5)cc4)C3)ccc(Cl)c12 [Example 25, 4-Chloro-7-[(3R)-3-{4-[4-({4-[4-(2,4-dioxo-1,3-diazinan-1-yl)-1H-indol-1-yl]piperidin-1-yl}methyl)piperidin-1-yl]phenyl}piperidin-1-yl]-1H-indazole-3-carbonitrile]
13 | 0.009 µM | 92% | 0.007 µM | 106% | N#Cc1c[nH]c2c(N3CCC[C@H](c4ccc(N5CCC(CN6CCC(n7ccc8c(N9CCC(=O)NC9=O)cccc87)CC6)CC5)cc4)C3)ccc(Cl)c12 [Example 26, 4-Chloro-7-[(3R)-3-{4-[4-({4-[4-(2,4-dioxo-1,3-diazinan-1-yl)-1H-indol-1-yl]piperidin-1-yl}methyl)piperidin-1-yl]phenyl}piperidin-1-yl]-1H-indole-3-carbonitrile]
14 | 0.025 µM | 98% | 0.083 µM | 83% | COc1nc(N2CCN(CC3CCN(c4ccc(C5CCN(c6ccc(C)c7c(C#N)c[nH]c67)CC5)cc4)CC3)CC2)cc2c1C(=O)N(C1CCC(=O)NC1=O)C2 (centres unmarked) [Example 30, 7-(4-{4-[4-({4-[2-(2,6-Dioxopiperidin-3-yl)-4-methoxy-3-oxo-2,3-dihydro-1H-pyrrolo[3,4-c]pyridin-6-yl]piperazin-1-yl}methyl)piperidin-1-yl]phenyl}piperidin-1-yl)-4-methyl-1H-indole-3-carbonitrile]
